Reference: patent US20170260186A1, “PROCESS OF PREPARING AMORPHOUS FORM OF IDELALISIB” (ScinoPharm Taiwan, Ltd., priority 2016, published 2017)

Legend:
[1] = Dynamic Vapor Sorption (DVS) water-solid interaction; type: physicochemical
Description: Dynamic Vapor Sorption (DVS) The sample was placed into the DVS sample pan and dried under a stream of dry nitrogen at 25° C. with 0% RH. The moisture was gradually introduced into the system with a 10% RH increment up to 90% RH and the humidity was then decreased in a similar trend for desorption phase. The sorption and desorption data were collected with equilibration set to dm/dt 0.004%/min for 5 min/step. The minimum and maximum time for each step were set to 10 and 360 min. Two sorption/desorption cycles were performed.

[2] = preliminary physicochemical stability study in recommended packaging; details: 3 months
Description: The double packed LDPE bag was then placed inside an aluminum foil bag with appropriate amount of desiccant between the LDPE bag and the aluminum foil bag. The aluminum bag package was then placed in a High-Density PolyEthylene (HDPE) container and stored at temperature below 25° C.

[3] = accelerated condition 40° C./75% RH
[4] = long term storage condition 25° C./60% RH

CC[C@H](Nc1ncnc2nc[nH]c12)c1nc2cccc(F)c2c(=O)n1-c1ccccc1 [amorphous idelalisib, (S)-2-(1-(9H-purin-6-ylamino)propyl)-5-fluoro-3-phenylquinazolin-4(3H)-one]
hygroscopicity (DVS result) ([1]; DVS isotherm, FIG. 4): hygroscopic material
moisture uptake ([1]; DVS, humidity changing from 0% RH to 90% RH, 25° C.): approximately 8.9%
solid form [2, 3]: remained as amorphous
water content change [2, 3]: not increased
solid form [2, 4]: remained as amorphous
water content change [2, 4]: not increased
